Measured values as given in patent US20250127907A1, “PARP INHIBITORS” (Stablix, Inc., priority 2023, published 2025).
Like-named read-outs stand apart in the source and are kept apart here.

How the values were obtained:
PARP1 [1] = target: T1, PARP1 (Homo sapiens, UniProt P09874); experiment: PARP1-enzyme assay (NAD/NADH-Glo biochemical assay); settings: recombinant PARP1, NAD+ consumption
Protocol: The PARP enzyme catalyzes the transfer of ADP-Ribose from NAD+ onto PAR chains/histone substrates. The catalytic cycle is monitored indirectly with the NAD/NADH-Glo Assay kit from Promega. […] NAD+ consumed is determined by comparison to the no enzyme control.
• Recombinant PARP1 • NAD+/NAHD-Glow assay Kit • Activated DNA, 10 μg/mL • NAD+(Nicotinamide Adenine Dinucleotide), 500 nM • Protein substrate for PARP1: Core Histone from chicken, 10 μg/mL
The letter codes for the PARP1-enzyme assay include: A (<1 nM), B (>1-10 nM), C (>10-100 nM), D (>100-1000 nM), E (>1000 nM), and “-” is not tested. The letter codes for the PARP trapping assay, and parylation assay include: A (<10 nM), B (>10-100 nM), C (>100-1000 nM), […], E (>10000 nM), and “-” is not tested.
Target sequence in this assay (P09874 whole entry, species assumed): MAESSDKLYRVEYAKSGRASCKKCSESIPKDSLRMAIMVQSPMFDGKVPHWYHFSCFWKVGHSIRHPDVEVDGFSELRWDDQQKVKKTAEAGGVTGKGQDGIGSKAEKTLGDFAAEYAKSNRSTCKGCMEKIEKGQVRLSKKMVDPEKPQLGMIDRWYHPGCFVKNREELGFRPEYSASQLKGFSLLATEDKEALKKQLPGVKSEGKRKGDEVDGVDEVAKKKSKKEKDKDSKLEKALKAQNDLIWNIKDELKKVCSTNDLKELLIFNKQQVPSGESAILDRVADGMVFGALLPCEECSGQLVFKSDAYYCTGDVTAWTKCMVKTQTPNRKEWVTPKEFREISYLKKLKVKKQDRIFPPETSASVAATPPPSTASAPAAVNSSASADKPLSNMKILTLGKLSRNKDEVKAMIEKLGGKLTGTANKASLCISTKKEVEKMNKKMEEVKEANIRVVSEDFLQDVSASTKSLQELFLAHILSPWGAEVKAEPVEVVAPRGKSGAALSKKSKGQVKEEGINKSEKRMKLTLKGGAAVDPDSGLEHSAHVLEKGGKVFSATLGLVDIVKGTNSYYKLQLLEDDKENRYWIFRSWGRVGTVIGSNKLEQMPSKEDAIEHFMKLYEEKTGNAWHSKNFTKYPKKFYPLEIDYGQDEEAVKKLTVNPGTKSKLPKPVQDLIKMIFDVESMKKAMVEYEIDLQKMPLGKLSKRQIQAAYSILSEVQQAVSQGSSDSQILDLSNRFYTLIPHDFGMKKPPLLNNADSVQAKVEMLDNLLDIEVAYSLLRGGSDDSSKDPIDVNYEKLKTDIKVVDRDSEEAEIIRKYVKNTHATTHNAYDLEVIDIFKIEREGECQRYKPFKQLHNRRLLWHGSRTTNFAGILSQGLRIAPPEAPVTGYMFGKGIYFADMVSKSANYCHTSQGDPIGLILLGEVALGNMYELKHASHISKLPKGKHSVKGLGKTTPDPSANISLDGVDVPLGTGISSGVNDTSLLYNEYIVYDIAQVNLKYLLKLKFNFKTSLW

[2] = system: Poly/Mono-ADP Ribose in U2OS cells; experiment: PAR in cell western assay (parylation) in U2OS cells; assay type: cell-based; settings: U2OS cells, 6 hrs, 2 mM H2O2, read-out: Parylation (U2OS)
Procedure, shortened: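 U2OS cells treated with compound for 6 h, then 2 mM H2O2 for 10 min to induce DNA damage. After methanol fixation, cells stained overnight at 4 °C with anti-mono/poly-ADP-ribose antibody and imaged by infrared in-cell western, normalized to CellTag 700; reported as % control inhibition.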

A2780 cells = experiment: Cell proliferation assay (A2780); assay type: cell-based; settings: Homo sapiens, 168 h, 7 days
PARP1 [3] = target: T1, PARP1; experiment: PARP trapping assay in U2OS cells; assay type: cell-based; parameters: endogenous in cells; host or cells: U2OS; settings: U2OS cells, MMS, 4 hrs; read-out: PARP Trapping (U2OS)
Procedure, shortened: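 U2OS cells co-treated with compounds and MMS for 4 h, then soluble proteins extracted with 0.5% Triton X-100, MeOH-fixed and immunostained for PARP1. Chromatin-bound PARP1 quantified as AF488 intensity per DAPI-segmented nucleus; potencies reported as letter-code bins.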
Target sequence in this assay (P09874 whole entry): as the sequence (P09874 whole entry, species assumed) above

MDA-MB-436 cells = experiment: Cell proliferation assay (MDA-MB-436); assay type: cell-based; settings: 7 days
HCC1806 cells = experiment: Cell proliferation assay (HCC1806); assay type: cell-based; settings: 7 days

| IC50 (PARP1 [1]) [nM] | IC50 ([2]; Homo sapiens) [nM] | IC50 (A2780 cells) [nM] | IC50 (PARP1 [3]) [nM] | IC50 (MDA-MB-436 cells; Homo sapiens, 168 h) [nM] | IC50 (HCC1806 cells; Homo sapiens, 168 h) [nM] | IC50 [2] [nM] | IC50 (MDA-MB-436 cells) [nM] | IC50 (HCC1806 cells) [nM] | SMILES |
| --- | --- | --- | --- | --- | --- | --- | --- | --- | --- |
| < 1 | 100 to 1000 | 1000 to 10000 | 100 to 1000 | 10 to 100 | 100 to 1000 | – | – | – | CCOc1cc(OC)ccc1CNCC(=O)N1CCCC(c2cccc(C(=O)N[C@@H](C(=O)N3CCN(CC4CCN(CC(=O)N5CCN(C(=O)c6cc(Cc7n[nH]c(=O)c8ccccc78)ccc6F)CC5)CC4)CC3)C3CCCCC3)c2)C1 (stereo partly shown) [Compound I-28] |
| < 1 | < 10 | – | – | 1000 to 10000 | < 10 | – | – | – | CCOc1cc(OC)ccc1CNCC(=O)N1CCCC(c2cccc(C(=O)N[C@@H](C(=O)NCc3cn(CCNCC(=O)N4CCN(C(=O)c5cc(Cc6n[nH]c(=O)c7ccccc67)ccc5F)CC4)nn3)C3CCCCC3)c2)C1 (stereo partly shown) [Compound I-29] |
| < 1 | < 10 | – | – | 100 to 1000 | < 10 | – | – | – | CCOc1cc(OC)ccc1CNCC(=O)N1CCCC(c2cccc(C(=O)N[C@@H](C(=O)NCCOCCOCCOCCOCCNCC(=O)N3CCN(C(=O)c4cc(Cc5n[nH]c(=O)c6ccccc56)ccc4F)CC3)C3CCCCC3)c2)C1 (stereo partly shown) [Compound I-31] |
| < 1 | 100 to 1000 | 10 to 100 | 100 to 1000 | 100 to 1000 | 100 to 1000 | – | – | – | CCc1cccc(-c2cnc(C(=O)NCCOCCNCC(=O)N3CCN(C(=O)c4cc(Cc5n[nH]c(=O)c6ccccc56)ccc4F)CC3)c(NC(=O)CNCc3cccc(C)c3)c2)c1 [Compound I-63] |
| < 1 | 100 to 1000 | – | 100 to 1000 | 10 to 100 | < 10 | – | – | – | COC12CCC(CNCC(=O)N3CCCC(c4cccc(C(=O)N[C@@H](C(=O)N5CCN(CC6CCN(CC(=O)N7CCN(C(=O)c8cc(Cc9n[nH]c(=O)c%10ccccc9%10)ccc8F)CC7)CC6)CC5)C5CCCCC5)c4)C3)(CC1)OC2 (stereo partly shown) [Compound I-157] |
| < 1 | 100 to 1000 | – | 100 to 1000 | 10 to 100 | < 10 | – | – | – | COC12CCC(CNCC(=O)N3CCCC(c4cccc(C(=O)N[C@@H](C(=O)N5CCC(CN6CCN(CC(=O)N7CCN(C(=O)c8cc(Cc9n[nH]c(=O)c%10ccccc9%10)ccc8F)CC7)CC6)CC5)C5CCCCC5)c4)C3)(CC1)OC2 (stereo partly shown) [Compound I-165] |
| < 1 | 100 to 1000 | – | 10 to 100 | 10 to 100 | < 10 | – | – | – | CCOc1cc(OC)ccc1CNCC(=O)N1CCCC(c2cccc(C(=O)N[C@@H](C(=O)N3CCN(CC45CCC(C(=O)N6CCN(C(=O)c7cc(Cc8n[nH]c(=O)c9ccccc89)ccc7F)CC6)(CC4)CO5)CC3)C3CCCCC3)c2)C1 (stereo partly shown) [Compound I-166] |
| < 1 | 100 to 1000 | – | 10 to 100 | 100 to 1000 | < 10 | – | – | – | CCOc1cc(OC)ccc1CNCC(=O)N1CCC[C@H](c2cccc(C(=O)N[C@@H](C(=O)N3CCN(CC4CCN(CC(=O)N5CCN(C(=O)c6cc(Cc7n[nH]c(=O)c8ccccc78)ccc6F)CC5)CC4)CC3)C3CCCCC3)c2)C1 [Compound I-167] |
| < 1 | 100 to 1000 | – | 10 to 100 | 10 to 100 | < 10 | – | – | – | CCOc1cc(OC)ccc1CNCC(=O)N1CCCC(c2cccc(C(=O)N[C@@H](C(=O)N3CCC(OC4CCN(CC(=O)N5CCN(C(=O)c6cc(Cc7n[nH]c(=O)c8ccccc78)ccc6F)CC5)CC4)CC3)C3CCCCC3)c2)C1 (stereo partly shown) [Compound I-173] |
| < 1 | – | – | > 10000 | – | – | 100 to 1000 | 100 to 1000 | < 10 | Cc1sc(CN2CCCC2c2nnc3n2CCCCC3)nc1C12CC(C(=O)NCCOCCOCCNCC(=O)N3CCN(C(=O)c4cc(Cc5cccc6c(=O)[nH]ncc56)ccc4F)CC3)(C1)C2 (stereo not shown) [Compound I-193] |
| < 1 | 100 to 1000 | – | > 10000 | 100 to 1000 | < 10 | – | – | – | Cc1sc(CN2CCCC2c2nnc3n2CCCCC3)nc1C12CC(C(=O)NCCOCCOCCOCCNCC(=O)N3CCN(C(=O)c4cc(Cc5n[nH]c(=O)c6ccccc56)ccc4F)CC3)(C1)C2 (stereo not shown) [Compound I-194] |
| < 1 | 10 to 100 | – | 1000 to 10000 | 100 to 1000 | < 10 | – | – | – | Cc1sc(CN2CCCC2c2nnc3n2CCCCC3)nc1C12CC(C(=O)NCCOCCOCCOCCOCCNCC(=O)N3CCN(C(=O)c4cc(Cc5n[nH]c(=O)c6ccccc56)ccc4F)CC3)(C1)C2 (stereo not shown) [Compound I-195] |
| < 1 | 10 to 100 | – | 100 to 1000 | 10 to 100 | < 10 | – | – | – | CCc1cccc(-c2cnc(C(=O)N3CCN(CC4CCN(CC(=O)N5CCN(C(=O)c6cc(Cc7n[nH]c(=O)c8ccccc78)ccc6F)CC5)CC4)CC3)c(NC(=O)CNCc3cc(C)no3)c2)c1 [Compound I-233] |
| < 1 | 100 to 1000 | 10 to 100 | 10 to 100 | 10 to 100 | – | – | – | – | CCOc1cc(OC)ccc1COCC(=O)N1CCCC(c2cccc(C(=O)N[C@@H](C(=O)N3CCN(CC4CCN(CC(=O)N5CCN(C(=O)c6cc(Cc7n[nH]c(=O)c8ccccc78)ccc6F)CC5)CC4)CC3)C3CCCCC3)c2)C1 (stereo partly shown) [Compound I-354] |
| < 1 | 10 to 100 | 1000 to 10000 | 100 to 1000 | 10 to 100 | – | – | – | – | O=C(N[C@@H](C(=O)N1CCN(CC2CCN(CC(=O)N3CCN(C(=O)c4cc(Cc5n[nH]c(=O)c6ccccc56)ccc4F)CC3)CC2)CC1)C1CCCCC1)c1cccc([C@@H]2CCCN(C(=O)CNC3CC3)C2)c1 [Compound I-365] |
| < 1 | 100 to 1000 | 100 to 1000 | 100 to 1000 | 100 to 1000 | 100 to 1000 | – | – | – | CCc1cccc(-c2cnc(C(=O)N3CCC(CN4CCN(CC(=O)N5CCN(C(=O)c6cc(Cc7n[nH]c(=O)c8ccccc78)ccc6F)CC5)CC4)CC3)c(N)c2)c1 [Compound I-366] |
| < 1 | 100 to 1000 | 100 to 1000 | 100 to 1000 | 100 to 1000 | 100 to 1000 | – | – | – | CCc1cccc(-c2cnc(C(=O)N3CCC(CN4CCN(CC(=O)N5CCN(C(=O)c6cc(Cc7n[nH]c(=O)c8ccccc78)ccc6F)CC5)CC4)CC3)c(NC(C)=O)c2)c1 [Compound I-367] |
| < 1 | 10 to 100 | 10 to 100 | 100 to 1000 | < 10 | 100 to 1000 | – | – | – | O=C(NC(C(=O)N1CCC(OC2CCN(CC(=O)N3CCN(C(=O)c4cc(Cc5n[nH]c(=O)c6ccccc56)ccc4F)CC3)CC2)CC1)C1CCCCC1)c1cccc(C2CCCN(C(=O)CNCc3ccc(F)cc3F)C2)c1 (stereo not shown) [Compound I-369] |
| < 1 | 10 to 100 | 10 to 100 | 10 to 100 | < 10 | – | – | – | – | O=C(CNC1CC1)N1CCCC(c2cccc(C(=O)N3CCN(CC45CCC(C(=O)N6CCN(C(=O)c7cc(Cc8n[nH]c(=O)c9ccccc89)ccc7F)CC6)(CC4)CO5)CC3)c2)C1 (stereo not shown) [Compound I-377] |
| < 1 | 10 to 100 | 10 to 100 | 100 to 1000 | < 10 | 10 to 100 | – | – | – | CCc1cccc(-c2cnc(C(=O)NCCOCCNCC(=O)N3CCN(C(=O)c4cc(Cc5n[nH]c(=O)c6ccccc56)ccc4F)CC3)c(NC(C)=O)c2)c1 [Compound I-403] |
| < 1 | 10 to 100 | 10 to 100 | 100 to 1000 | < 10 | – | – | – | – | CCc1cccc(-c2cnc(C(=O)N3CCC(OC4CCN(CC(=O)N5CCN(C(=O)c6cc(Cc7n[nH]c(=O)c8ccccc78)ccc6F)CC5)CC4)CC3)c(NC(C)=O)c2)c1 [Compound I-404] |
| < 1 | 10 to 100 | 10 to 100 | 10 to 100 | < 10 | – | – | – | – | CCc1cccc(-c2cnc(C(=O)N3CCC(CN4CCN(CC(=O)N5CCN(C(=O)c6cc(Cc7n[nH]c(=O)c8ccccc78)ccc6F)CC5)CC4)CC3)c(NC3CC3)c2)c1 [Compound I-407] |
| < 1 | 100 to 1000 | 100 to 1000 | 100 to 1000 | < 10 | – | – | – | – | CCc1cccc(-c2cnc(C(=O)N3CCC(CN4CCN(CC(=O)N5CCN(C(=O)c6cc(Cc7n[nH]c(=O)c8ccccc78)ccc6F)CC5)CC4)CC3)c(NC)c2)c1 [Compound I-418] |
| < 1 | 100 to 1000 | 100 to 1000 | 10 to 100 | < 10 | – | – | – | – | CCc1cccc(-c2cnc(C(=O)N3CCC(CN4CCN(CC(=O)N5CCN(C(=O)c6cc(Cc7n[nH]c(=O)c8ccccc78)ccc6F)CC5)CC4)CC3)c(OC(F)(F)F)c2)c1 [Compound I-420] |
